“Also recorded” adds a separate entry of the source.
How the values were obtained:
Olfr110 = molecular target: T1, Olfr110 (Mus musculus, UniProt A2RT31); test: Luciferase assay in Hana3A cells transfected with Olfr110; format: cell-based
T1 construct: Full-length odorant receptor genes from mouse and human genomic DNAs were amplified using appropriate primers; Lucy (N); Flag (N); Rho (N); expressed in transfected cells; host or cells: Hana3A cells, co-transfected with RTP1S, pCRELuc and pRL-SV40
T1 sequence (A2RT31 1-317): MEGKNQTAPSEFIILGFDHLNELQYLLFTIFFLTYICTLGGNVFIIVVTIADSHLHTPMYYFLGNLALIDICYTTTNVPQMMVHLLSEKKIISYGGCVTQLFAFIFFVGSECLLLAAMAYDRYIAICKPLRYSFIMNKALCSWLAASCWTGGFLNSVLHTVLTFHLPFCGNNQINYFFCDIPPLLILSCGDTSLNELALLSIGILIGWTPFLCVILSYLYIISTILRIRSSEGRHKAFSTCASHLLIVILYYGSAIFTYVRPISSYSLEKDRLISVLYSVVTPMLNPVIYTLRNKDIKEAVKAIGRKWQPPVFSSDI
Experimental: A Dual-Glo luciferase assay system (#E2940; Promega) was used for OR ligand screening. More specifically, Hana3A cells were seeded in white polystyrene 96-well plates (#353296; BD Biosciences) one day before transfection. pCRELuc (1 μg; #219076; Agilent Technologies), pRL-SV40 (1 μg; #E2231; Promega), RTP1S (1 μg), and OR (6 μg; or Mock) vectors were transfected for 24 hours in each plate. Analysis was performed using Lipofectamine 2000 (#11668-019; Thermo Fisher Scientific) according to the manufacturer's protocols. Transfected cells were stimulated at 37° C. for 4 hours with various concentrations of diluted odorants in a CD293 medium (#11913-019; Thermo Fisher Scientific). The activity of luciferase was normalized to that of Renilla luciferase. Luminescence was measured using a SpectraMax L microplate reader (Molecular Devices).

primary microglia = test: ROS / superoxide generation in primary microglia; format: cell-based, mouse
Experimental: Superoxide concentrations were calculated by measuring the degree ofcytochrome c reduction using a VersaMax microplate reader (Babior et al., 1973). Microglia were cultured in a 96 well plate at a concentration of 1.0×10^5 cells/well, and the microglia were activated by a 10 μM ATP solution containing 2-PF and cytochrome c, or a solution in which Sup is mixed with cytochalasin B (5 μM; #C66762; Sigma Aldrich). The concentration of ROS was measured through a change in light absorption every minute for 25 minutes at 550 nm.
ROS levels were measured using 2′,7′-dichlorodihydrofluorescein diacetate (DCF-DA, #D6883; Sigma Aldrich) by a previously described method with minor modifications (Bae et al., 2001). More specifically, primary microglia were seeded in 24-well plates (5.0×10^5 cells/well) for 24 hours, and then treated with 10 μM DCF-DA at 37° C. for 30 minutes. One plate was treated with 2-PF, and the other one was not. The cells in each well were measured using a flow cytometer (FACS Accuri™ C6; BD Biosciences). MFI was measured as described above.

[1] = Disease behavior: mouse mobility after IP injection; format: in vivo; details: 2-PF injection (IP), three concentrations
Experimental: It is known that an increase in disease behavior by microglial activation is due to an increase in secreted cytokines. To confirm the increase in disease behavior with the increase in cytokines, this experiment was conducted. The evaluation of disease behavior was accomplished after IP injection of Sup or 2-PF into the mice.
After IP injection, a mouse was placed in a space with four open sides (40×40×40 cm, white field, black wall), and the location of the mouse was recorded with a camera for 30 minutes, and then a moving distance thereof was calculated. Afterward, the data was plotted in a pseudo-color heat map using EthoVision XT (Noldus, Netherlands).

mode of action at Olfr110 (Olfr110): agonist
SMILES: CCCCCc1ccco1 [2-PF, 2-pentylfuran]
reactivity with Olfr110 (relative luciferase activity) (Olfr110; Hana3A cells): selective ligands; also recorded: showed the highest reactivity with Olfr110
ROS generation on top of Sup MOI 5 (primary microglia; 500 μM 2-PF with Sup MOI 5): further increased
ROS secretion (primary microglia; 100, 300 and 500 μM): significantly increased in a concentration-dependent manner
mouse mobility [1]: concentration-dependent decrease
